According to patent US8546414B2, “Ion channel modulators and methods of use” (Vertex Pharmaceuticals Incorporated, priority 2004, dated 2013):

Tests used:
[1] = biological target: T1, CaV2.2 (Homo sapiens, UniProt Q00975); experiment: VIPR optical membrane potential assay with electrical stimulation, CaV2.2; assay type: cell-based; conditions: Table 9, CaV 2.2 receptors
T1 construct: expressed in transfected cells; host or cells: HEK293
Procedure: A. Optical Methods for Assaying CaV Inhibition Properties of Compounds:
(§1) Antagonist properties of test compounds were assessed as follows. Cells expressing the CaV of interest were placed into microtiter plates. After an incubation period, the cells were stained with fluorescent dyes sensitive to the transmembrane potential. The test compounds were added to the microtiter plate. The cells were stimulated with electrical means to evoke a CaV dependent membrane potential change from unblocked channels, which was detected and measured with trans-membrane potential-sensitive dyes. Antagonists were detected as a decreased membrane potential response to the stimulus.
(§2) VIPR® Optical Membrane Potential Assay Method with Electrical Stimulation
The following is an example of how CaV2.2 inhibition activity is measured using the optical membrane potential method. Other subtypes are performed in an analogous mode in a cell line expressing the CaV of interest.
HEK293 cells stably expressing CaV2.2 are plated into 96-well microtiter plates. After an appropriate incubation period, the cells are stained with the voltage sensitive dyes CC2-DMPE/DiSBAC2(3) as follows.
(§3) 2X CC2-DMPE=20 μM CC2-DMPE: 10 mM CC2-DMPE is vortexed with an equivalent volume of 10% Pluronic, followed by vortexing in required amount of HBSS containing 10 mM HEPES. Each cell plate will require 5 mL of 2×CC2-DMPE. 50 μL of 2×CC2-DMPE is added to wells containing washed cells, resulting in a 10 μM final staining concentration. The cells are stained for 30 minutes in the dark at RT.
Vortex in required amount of Bath X with beta-cyclodextrin. Each 96 well cell plate will require 5 ml of 2XCC2DMPE. Wash plate with ELx405 with Bath X, leaving a residual volume of 50 μL/well. Add 50 μL of 2XCC2DMPE & […] to each well. Stain for 30 minutes in the dark at RT.
Allow solution to sit for 10 minutes. Slowly mix in 370 mM BaCl2. This solution can be used to solvate compound plates. Note that compound plates are made at 1.5× drug concentration and not the usual 2X. Wash CC2 stained plate, again, leaving residual volume of 50 μL. Add 100 uL/well of the AY17 solution. Stain for 15 minutes in the dark at RT. Run plate on the optical reader.
(§4) The instrument comprises a microtiter plate handler, an optical system for exciting the coumarin dye while simultaneously recording the coumarin and oxonol emissions, a waveform generator, a current- or voltage-controlled amplifier, and a device for inserting electrodes in well. Under integrated computer control, this instrument passes user-programmed electrical stimulus protocols to cells within the wells of the microtiter plate.
Insert or use electrodes into each well to be assayed.
(§5) Use the current-controlled amplifier to deliver stimulation wave pulses for 3-5 s. Two seconds of pre-stimulus recording are performed to obtain the un-stimulated intensities. Five seconds of post-stimulation recording are performed to examine the relaxation to the resting state.
(§6) Data are analyzed and reported as normalized ratios of background-subtracted emission intensities measured in the 460 nm and 580 nm channels. Background intensities are then subtracted from each assay channel. Background intensities are obtained by measuring the emission intensities during the same time periods from identically treated assay wells in which there are no cells. The response as a function of time is then reported as the ratios obtained using the following formula: […]
(§7) The data is further reduced by calculating the initial (Ri) and final (Rf) ratios. These are the average ratio values during part or all of the pre-stimulation period, and during sample points during the stimulation period. The response to the stimulus R=Rf/Ri is then calculated.
Control responses are obtained by performing assays in the presence of a compound with the desired properties (positive control), such as mibefradil, and in the absence of pharmacological agents (negative control).

[2] = biological target: T2, NaV1.3 (Homo sapiens, UniProt Q9NY46); experiment: VIPR optical membrane potential assay with electrical stimulation, NaV1.3; assay type: cell-based; conditions: Table 9, NaV 1.3 receptors
T2 construct: expressed in transfected cells; host or cells: HEK293
Procedure: as §1, with “expressing the NaV of interest” for “expressing the CaV of interest”, “stimulated with either chemical or electrical means” for “stimulated with electrical means”, “evoke a NaV dependent membrane” for “evoke a CaV dependent membrane”
as §2
The following is an example of how NaV1.3 inhibition activity is measured using the optical membrane potential method#2. Other subtypes are performed in an analogous mode in a cell line expressing the NaV of interest.
HEK293 cells stably expressing NaV1.3 are plated into 96-well microtiter plates. After an appropriate incubation period, the cells are stained with the voltage sensitive dyes CC2-DMPE/DiSBAC2(3) as follows.
as §3, with “pluronic,” for “Pluronic,”
2X DISBAC2(3) with ABSC1=6 μM DISBAC2(3) and 1 mM ABSC1: The required amount of 10 mM DISBAC2(3) is added to a 50 ml conical tube and mixed with 1 μL 10% pluronic for each mL of solution to be made and vortexed together. Then HBSS/HEPES is added to make up 2× solution. Finally, the ABSC1 is added.
The 2X DiSBAC2(3) solution can be used to solvate compound plates. Note that compound plates are made at 2× drug concentration. Wash stained plate again, leaving residual volume of 50 Add 50 μL/well of the 2X DiSBAC2(3) w/ABSC1. Stain for 30 minutes in the dark at RT.
as §4
as §5, with “• 1. Insert or use electrodes into each well to be assayed. • 2. Use” for “Use”, “3” for “3-5”, “state. Data Analysis” for “state.”
as §6, §7
Control responses are obtained by performing assays in the presence of a compound with the desired properties (positive control), such as tetracaine, and in the absence of pharmacological agents (negative control). Responses to the negative (N) and positive (P) controls are calculated as above. The compound antagonist activity A is defined as: […]

T2 sequence (Q9NY46 whole entry): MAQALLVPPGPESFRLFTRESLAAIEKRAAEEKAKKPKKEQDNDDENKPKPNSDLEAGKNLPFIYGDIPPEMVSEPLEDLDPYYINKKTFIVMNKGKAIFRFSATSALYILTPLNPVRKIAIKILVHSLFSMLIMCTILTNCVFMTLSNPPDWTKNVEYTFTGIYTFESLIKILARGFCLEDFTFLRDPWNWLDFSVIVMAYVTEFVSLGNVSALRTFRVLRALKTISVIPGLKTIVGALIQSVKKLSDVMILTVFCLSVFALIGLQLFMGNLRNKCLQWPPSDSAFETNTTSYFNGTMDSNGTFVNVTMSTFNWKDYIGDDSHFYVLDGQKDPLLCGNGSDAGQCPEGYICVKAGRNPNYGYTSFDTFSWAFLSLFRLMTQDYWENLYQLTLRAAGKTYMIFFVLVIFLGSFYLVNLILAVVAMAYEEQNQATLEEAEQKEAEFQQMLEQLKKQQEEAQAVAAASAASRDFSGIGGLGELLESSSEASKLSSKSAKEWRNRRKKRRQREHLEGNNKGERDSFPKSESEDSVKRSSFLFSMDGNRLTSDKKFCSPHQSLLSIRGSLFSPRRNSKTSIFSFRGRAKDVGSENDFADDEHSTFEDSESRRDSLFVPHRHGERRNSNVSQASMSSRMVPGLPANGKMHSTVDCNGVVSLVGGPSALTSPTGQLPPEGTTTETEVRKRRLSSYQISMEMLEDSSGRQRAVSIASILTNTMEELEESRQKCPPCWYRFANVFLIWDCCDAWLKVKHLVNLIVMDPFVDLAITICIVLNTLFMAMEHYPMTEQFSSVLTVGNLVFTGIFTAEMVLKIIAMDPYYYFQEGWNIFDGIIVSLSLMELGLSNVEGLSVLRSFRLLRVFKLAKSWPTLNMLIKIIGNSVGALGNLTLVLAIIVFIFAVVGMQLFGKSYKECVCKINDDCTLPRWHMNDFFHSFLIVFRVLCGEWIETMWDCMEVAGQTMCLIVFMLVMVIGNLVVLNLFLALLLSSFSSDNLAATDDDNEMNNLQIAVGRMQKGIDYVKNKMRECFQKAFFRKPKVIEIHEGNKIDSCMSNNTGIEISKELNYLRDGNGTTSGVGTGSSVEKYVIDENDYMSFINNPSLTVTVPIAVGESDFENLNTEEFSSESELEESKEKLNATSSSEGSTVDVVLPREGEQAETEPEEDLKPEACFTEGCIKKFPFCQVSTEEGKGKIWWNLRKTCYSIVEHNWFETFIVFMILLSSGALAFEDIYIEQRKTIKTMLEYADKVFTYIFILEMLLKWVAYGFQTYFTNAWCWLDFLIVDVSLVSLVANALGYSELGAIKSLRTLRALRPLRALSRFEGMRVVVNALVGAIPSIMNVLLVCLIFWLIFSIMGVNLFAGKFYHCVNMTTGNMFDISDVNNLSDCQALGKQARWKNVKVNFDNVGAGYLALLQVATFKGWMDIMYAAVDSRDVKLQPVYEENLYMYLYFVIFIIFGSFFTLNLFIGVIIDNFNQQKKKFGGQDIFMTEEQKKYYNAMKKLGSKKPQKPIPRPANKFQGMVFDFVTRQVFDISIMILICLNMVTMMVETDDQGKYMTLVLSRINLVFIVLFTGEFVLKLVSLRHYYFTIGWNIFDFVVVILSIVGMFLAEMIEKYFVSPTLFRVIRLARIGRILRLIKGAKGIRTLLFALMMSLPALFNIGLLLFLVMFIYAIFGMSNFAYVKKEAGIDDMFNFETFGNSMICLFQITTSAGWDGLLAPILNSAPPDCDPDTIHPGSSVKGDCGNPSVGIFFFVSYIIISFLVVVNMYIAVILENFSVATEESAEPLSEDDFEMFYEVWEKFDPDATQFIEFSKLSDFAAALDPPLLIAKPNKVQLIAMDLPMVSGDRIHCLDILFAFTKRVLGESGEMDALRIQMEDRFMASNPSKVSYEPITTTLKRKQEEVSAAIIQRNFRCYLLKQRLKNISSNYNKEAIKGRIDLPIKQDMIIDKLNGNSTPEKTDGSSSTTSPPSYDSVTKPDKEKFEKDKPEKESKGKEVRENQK

| Structure (SMILES) | IC50 [1] | IC50 [2] |
| --- | --- | --- |
| CCN(Cc1cccc(C)c1)C(=O)c1cnc(N2CCN(C(C)=O)CC2)nc1-c1ccc(C#N)cc1 [compound 208] | > 10 µM | > 10 µM |
| CCN(Cc1cccc(C)c1)C(=O)c1cnc(NCC2CC2)nc1-c1ccccc1F [compound 209] | > 10 µM | > 10 µM |
| N#Cc1ccc(-c2nc(NC3CCCCC3)ncc2C(=O)N2CCCC2)cc1 [compound 210] | > 10 µM | > 10 µM |
| O=C(NCC1CC1)c1cnc(N2CCOCC2)nc1-c1ccccc1F [compound 212] | > 10 µM | – |
| CCC(C)NC(=O)c1cnc(N2CCOCC2)nc1-c1ccccc1F (stereo not drawn) [compound 213] | > 10 µM | – |
| CCCCNC(=O)c1cnc(NCCCC)nc1-c1cccc(C)c1 [compound 214] | > 10 µM | – |
| CC(=O)N1CCN(c2ncc(C(=O)N(Cc3ccccc3)C(C)C)c(-c3ccccc3F)n2)CC1 [compound 216] | > 10 µM | > 10 µM |
| CC1C(NC(=O)c2cnc(N3CCOCC3)nc2-c2ccc(C#N)cc2)CC2CC1C2(C)C (stereo not drawn) [compound 217] | > 10 µM | > 10 µM |
| CC1CCN(C(=O)c2cnc(NCc3ccccc3C(F)(F)F)nc2-c2ccc(C#N)cc2)CC1 [compound 221] | > 10 µM | – |
| CCN(Cc1ccccc1)C(=O)c1cnc(NCc2ccc3c(c2)OCO3)nc1-c1ccccc1F [compound 222] | > 10 µM | > 10 µM |
| CCN(C)c1ncc(C(=O)NCCCOC)c(-c2cccc(C)c2)n1 [compound 223] | > 10 µM | > 10 µM |
| O=C(NCc1ccccc1)c1cnc(NCCc2cccc(F)c2)nc1-c1ccccc1F [compound 224] | > 10 µM | > 10 µM |
| CC(=O)N1CCN(c2ncc(C(=O)N3CCOCC3)c(-c3cccc(C)c3)n2)CC1 [compound 226] | > 10 µM | > 10 µM |
| CCN(C)c1ncc(C(=O)N(C)C2CCCCC2)c(-c2ccc(C#N)cc2)n1 [compound 227] | > 10 µM | > 10 µM |
| CCC(C)NC(=O)c1cnc(NC2CC3CC(C2C)C3(C)C)nc1-c1ccc(C#N)cc1 (stereo not drawn) [compound 228] | > 10 µM | > 10 µM |
| O=C(c1cnc(N2CCOCC2)nc1-c1ccc(-c2ccccc2)cc1)N1CCCCC1 [compound 229] | > 10 µM | > 10 µM |
| CCC(C)NC(=O)c1cnc(N(C)CC(C)C)nc1-c1ccc(C#N)cc1 (stereo not drawn) [compound 230] | > 10 µM | > 10 µM |
| CC(C)N(Cc1ccccc1)C(=O)c1cnc(N2CCOCC2)nc1-c1ccc(C#N)cc1 [compound 232] | 2 to 10 µM | > 10 µM |
| CCN(C)C(=O)c1cnc(NCCc2ccc(OC)cc2)nc1-c1cccc(C)c1 [compound 234] | > 10 µM | – |
| O=C(c1cnc(NCc2cccc(C(F)(F)F)c2)nc1-c1ccccc1F)N1CCOCC1 [compound 236] | > 10 µM | > 10 µM |
| O=C(c1cnc(N2CCOCC2)nc1-c1ccccc1F)N1CCCC1 [compound 250] | > 10 µM | – |
| O=C(c1cnc(N2CCOCC2)nc1-c1ccccc1F)N1CCOCC1 [compound 275] | > 10 µM | – |
| CN(C(=O)c1cnc(N2CCOCC2)nc1-c1ccccc1F)C1CCCCC1 [compound 283] | > 10 µM | – |
| N#Cc1ccc(-c2nc(N3CCOCC3)ncc2C(=O)NCc2ccccc2C(F)(F)F)cc1 [compound 287] | > 10 µM | – |
| CCN(C)c1ncc(C(=O)N(Cc2ccccc2)C(C)C)c(-c2ccccc2F)n1 [compound 312] | 2 to 10 µM | – |
| CCOCCN(CCOCC)C(=O)c1cnc(N2CCOCC2)nc1-c1ccccc1F [compound 315] | > 10 µM | – |
| Cc1cccc(-c2nc(NCc3cccc(Cl)c3)ncc2C(=O)N2CCOCC2)c1 [compound 318] | > 10 µM | – |
| O=C(NCC1CCCCC1)c1cnc(N2CCOCC2)nc1-c1ccccc1F [compound 328] | > 10 µM | – |
| CCN(Cc1cccc(C)c1)C(=O)c1cnc(N2CCCC2)nc1-c1ccccc1F [compound 335] | 2 to 10 µM | – |
| Cc1nc(N2CCOCC2)nc(-c2ccccc2F)c1C(=O)N(Cc1ccccc1)C(C)C [compound 338, N-benzyl-4-(2-fluorophenyl)-N-isopropyl-6-methyl-2-morpholinopyrimidine-5-carboxamide] | > 10 µM | – |

Next, values leading:

| IC50 [1] | IC50 [2] | Structure (SMILES) |
| --- | --- | --- |
| > 10 µM | > 10 µM | CC(C)N(Cc1ccccc1)C(=O)c1cnc(N2CCCC2)nc1-c1ccc(C#N)cc1 [compound 211] |
| > 10 µM | – | CC(C)CN(C)C(=O)c1cnc(N2CCOCC2)nc1-c1ccccc1F [compound 215] |
| > 10 µM | > 10 µM | CCCCNC(=O)c1cnc(NC2CCCC2)nc1-c1cccc(C)c1 [compound 218] |
| 2 to 10 µM | > 10 µM | CCC1CCC(C)N(C(=O)c2cnc(NCC3CC3)nc2-c2ccccc2F)C1 (stereo not drawn) [compound 219] |
| 2 to 10 µM | > 10 µM | CC1CC(C)CN(C(=O)c2cnc(NCCc3cccc(F)c3)nc2-c2ccc(C#N)cc2)C1 (stereo not drawn) [compound 220] |
| 2 to 10 µM | > 10 µM | CC(=O)N1CCN(c2ncc(C(=O)N(C)CC(C)C)c(-c3ccc(-c4ccccc4)cc3)n2)CC1 [compound 225] |
| > 10 µM | > 10 µM | COCCCNc1ncc(C(=O)NCC2CC2)c(-c2ccc(C#N)cc2)n1 [compound 231] |
| > 10 µM | > 10 µM | CCCCNC(=O)c1cnc(N2CCOCC2)nc1-c1ccccc1F [compound 233] |
| > 10 µM | > 10 µM | Cc1cccc(-c2nc(NCc3cccc(Cl)c3)ncc2C(=O)N(C)CC(C)C)c1 [compound 235] |
| > 10 µM | – | N#Cc1ccc(-c2nc(NCCc3cccc(F)c3)ncc2C(=O)NCc2ccccc2)cc1 [compound 249] |
| > 10 µM | – | CC1CCCCC1NC(=O)c1cnc(N2CCOCC2)nc1-c1ccccc1F (stereo not drawn) [compound 254] |
| 2 to 10 µM | – | CC(=O)N1CCN(c2ncc(C(=O)N3CCCCC3)c(-c3ccc(-c4ccccc4)cc3)n2)CC1 [compound 278] |
| > 10 µM | – | CCN(Cc1ccccc1)C(=O)c1cnc(NC2CCCC2)nc1-c1ccccc1F [compound 311] |
